Source: patent publication US20120121591A1 (priority 2009, published 2012)

Tests used:
Assay type in all cases: cell-based
hKv1.3 = hKv1.3 (Homo sapiens, UniProt P22001); test: cell-based; details: Kv1.3 (IWQ) IC50 (nM, Avg)
[1] = system: IFN-g secretion from T cells in human whole blood; details: read-out: WB (IFNg) IC50 (nM, Avg)
[2] = system: IL-2 secretion from T cells in human whole blood; details: read-out: WB (IL-2) IC50 (nM, Avg)

hKv1.3, sequence (P22001 whole entry): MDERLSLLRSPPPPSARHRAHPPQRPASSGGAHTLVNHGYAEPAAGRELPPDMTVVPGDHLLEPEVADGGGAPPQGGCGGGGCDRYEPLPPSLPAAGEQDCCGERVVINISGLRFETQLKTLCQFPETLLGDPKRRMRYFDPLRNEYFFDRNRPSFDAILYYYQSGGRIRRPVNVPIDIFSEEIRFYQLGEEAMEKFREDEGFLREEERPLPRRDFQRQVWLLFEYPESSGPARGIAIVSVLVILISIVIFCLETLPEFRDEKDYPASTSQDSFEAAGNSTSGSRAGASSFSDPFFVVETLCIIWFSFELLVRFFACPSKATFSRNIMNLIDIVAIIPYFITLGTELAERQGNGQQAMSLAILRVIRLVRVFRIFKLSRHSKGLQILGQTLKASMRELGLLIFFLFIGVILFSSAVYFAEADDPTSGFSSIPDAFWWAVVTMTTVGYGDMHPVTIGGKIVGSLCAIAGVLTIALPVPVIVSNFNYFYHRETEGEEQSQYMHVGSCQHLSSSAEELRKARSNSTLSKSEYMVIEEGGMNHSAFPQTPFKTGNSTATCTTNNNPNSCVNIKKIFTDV

| Structure (SMILES) | IC50 (hKv1.3) [nM] | IC50 [1] [nM] | IC50 [2] [nM] |
| --- | --- | --- | --- |
| CCC[C@@H]1NC(=O)[C@H](CO)NC(=O)[C@H](Cc2c[nH]cn2)NC(=O)[C@H](CCCCN)NC(=O)[C@@H]2CSSC[C@@H]3NC(=O)[C@H]([C@@H](C)O)NC(=O)[C@H](CCCCN)NC(=O)[C@H](CCCNC(=N)N)NC(=O)[C@H](CSSC[C@H](NC(=O)[C@H](CCCNC(=N)N)NC(=O)[C@H](CO)NC(=O)[C@H](CCCCN)NC(=O)[C@@H]4CCCN4C(=O)[C@H]([C@@H](C)CC)NC(=O)[C@H]([C@@H](C)O)NC(=O)[C@H](CC(=O)O)NC(=O)[C@H]([C@@H](C)CC)NC(=O)[C@@H](NC(=O)[C@H](CO)NC(=O)[C@@H](N)CCCNC(=N)N)CSSC[C@@H](C(=O)NC(C)(C)C(N)=O)NC(=O)[C@H]([C@@H](C)O)NC(=O)CNC3=O)C(=O)N[C@@H]([C@@H](C)O)C(=O)N[C@@H](C)C(=O)N[C@@H](Cc3ccccc3)C(=O)N[C@@H](CCCCN)C(=O)N2)NC(=O)[C@H](Cc2ccccc2)NC(=O)[C@H](CO)NC(=O)[C@H](CC(C)C)NC(=O)[C@H](CCCNC(=N)N)NC(=O)[C@H](Cc2ccc(O)cc2)NC(=O)[C@H](CCCCN)NC1=O [[Lys16,Nva21]ShK-Aib-amide] | 0.03 | 0.722 | 0.483 |
| CCC[C@@H]1NC(=O)[C@H](CO)NC(=O)[C@H](Cc2c[nH]cn2)NC(=O)[C@H](CCCCN)NC(=O)[C@@H]2CSSC[C@@H]3NC(=O)[C@H]([C@@H](C)O)NC(=O)[C@H](CCCCN)NC(=O)[C@H](CCCNC(=N)N)NC(=O)[C@H](CSSC[C@H](NC(=O)[C@H](CCCNC(=N)N)NC(=O)[C@H](CO)NC(=O)[C@H](CCCCN)NC(=O)[C@@H]4CCCN4C(=O)[C@H]([C@@H](C)CC)NC(=O)[C@H]([C@@H](C)O)NC(=O)[C@H](CC(=O)O)NC(=O)[C@H]([C@@H](C)CC)NC(=O)[C@@H](NC(=O)[C@H](CO)NC(=O)[C@@H](N)CCCNC(=N)N)CSSC[C@@H](C(=O)N[C@@H](C)C(N)=O)NC(=O)[C@H]([C@@H](C)O)NC(=O)CNC3=O)C(=O)N[C@@H]([C@@H](C)O)C(=O)N[C@@H](C)C(=O)N[C@@H](Cc3ccccc3)C(=O)N[C@@H](CCCCN)C(=O)N2)NC(=O)[C@H](Cc2ccccc2)NC(=O)[C@H](CO)NC(=O)[C@H](CC(C)C)NC(=O)[C@H](CCCNC(=N)N)NC(=O)[C@H](Cc2ccc(O)cc2)NC(=O)[C@H](CCCCN)NC1=O [[Lys16,Nva21]ShK-Ala-amide] | 0.08 | 1.46 | 0.431 |
| CCC[C@@H]1NC(=O)[C@H](CO)NC(=O)[C@H](Cc2c[nH]cn2)NC(=O)[C@H](CCCCN)NC(=O)[C@@H]2CSSC[C@@H]3NC(=O)[C@H]([C@@H](C)O)NC(=O)[C@H](CCCCN)NC(=O)[C@H](CCCNC(=N)N)NC(=O)[C@H](CSSC[C@H](NC(=O)[C@H](CCCNC(=N)N)NC(=O)[C@H](CO)NC(=O)[C@H](CCCCN)NC(=O)[C@@H]4CCCN4C(=O)[C@H]([C@@H](C)CC)NC(=O)[C@H]([C@@H](C)O)NC(=O)[C@H](CC(=O)O)NC(=O)[C@H]([C@@H](C)CC)NC(=O)[C@@H](NC(=O)[C@H](CO)NC(=O)[C@@H](N)CCCNC(=N)N)CSSC[C@@H](C(=O)N[C@@H](C)C(=O)O)NC(=O)[C@H]([C@@H](C)O)NC(=O)CNC3=O)C(=O)N[C@@H]([C@@H](C)O)C(=O)N[C@@H](C)C(=O)N[C@@H](Cc3ccccc3)C(=O)N[C@@H](CCCCN)C(=O)N2)NC(=O)[C@H](Cc2ccccc2)NC(=O)[C@H](CO)NC(=O)[C@H](CC(C)C)NC(=O)[C@H](CCCNC(=N)N)NC(=O)[C@H](Cc2ccc(O)cc2)NC(=O)[C@H](CCCCN)NC1=O [[Lys16,Nva21]ShK-Ala] | 13.5 | 0.307 | 0.164 |
| CCC[C@@H]1NC(=O)[C@H](CO)NC(=O)[C@H](Cc2c[nH]cn2)NC(=O)[C@H](CCCCN)NC(=O)[C@@H]2CSSC[C@@H]3NC(=O)[C@H]([C@@H](C)O)NC(=O)[C@H](CCCCN)NC(=O)[C@H](CCCNC(=N)N)NC(=O)[C@H](CSSC[C@H](NC(=O)[C@H](CCCNC(=N)N)NC(=O)[C@H](CO)NC(=O)[C@H](CCCCN)NC(=O)[C@@H]4CCCN4C(=O)[C@H]([C@@H](C)CC)NC(=O)[C@H]([C@@H](C)O)NC(=O)[C@H](CC(=O)O)NC(=O)[C@H]([C@@H](C)CC)NC(=O)[C@@H](NC(=O)[C@H](CO)NC(=O)[C@@H](N)CCCNC(=N)N)CSSC[C@@H](C(=O)N[C@@H](CC(=O)O)C(N)=O)NC(=O)[C@H]([C@@H](C)O)NC(=O)CNC3=O)C(=O)N[C@@H]([C@@H](C)O)C(=O)N[C@@H](C)C(=O)N[C@@H](Cc3ccccc3)C(=O)N[C@@H](CCCCN)C(=O)N2)NC(=O)[C@H](Cc2ccccc2)NC(=O)[C@H](CO)NC(=O)[C@H](CC(C)C)NC(=O)[C@H](CCCNC(=N)N)NC(=O)[C@H](Cc2ccc(O)cc2)NC(=O)[C@H](CCCCN)NC1=O [[Lys16,Nva21]ShK-Asp-amide] | 0.28 | 0.349 | 0.255 |
| CCC[C@@H]1NC(=O)[C@H](CO)NC(=O)[C@H](Cc2c[nH]cn2)NC(=O)[C@H](CCCCN)NC(=O)[C@@H]2CSSC[C@@H]3NC(=O)[C@H]([C@@H](C)O)NC(=O)[C@H](CCCCN)NC(=O)[C@H](CCCNC(=N)N)NC(=O)[C@H](CSSC[C@H](NC(=O)[C@H](CCCNC(=N)N)NC(=O)[C@H](CO)NC(=O)[C@H](CCCCN)NC(=O)[C@@H]4CCCN4C(=O)[C@H]([C@@H](C)CC)NC(=O)[C@H]([C@@H](C)O)NC(=O)[C@H](CC(=O)O)NC(=O)[C@H]([C@@H](C)CC)NC(=O)[C@@H](NC(=O)[C@H](CO)NC(=O)[C@@H](N)CCCNC(=N)N)CSSC[C@@H](C(=O)N[C@@H](CO)C(N)=O)NC(=O)[C@H]([C@@H](C)O)NC(=O)CNC3=O)C(=O)N[C@@H]([C@@H](C)O)C(=O)N[C@@H](C)C(=O)N[C@@H](Cc3ccccc3)C(=O)N[C@@H](CCCCN)C(=O)N2)NC(=O)[C@H](Cc2ccccc2)NC(=O)[C@H](CO)NC(=O)[C@H](CC(C)C)NC(=O)[C@H](CCCNC(=N)N)NC(=O)[C@H](Cc2ccc(O)cc2)NC(=O)[C@H](CCCCN)NC1=O [[Lys16,Nva21]ShK-Ser-amide] | 0.09 | 0.662 | 0.467 |
| CCC[C@@H]1NC(=O)[C@H](CO)NC(=O)[C@H](Cc2c[nH]cn2)NC(=O)[C@H](CCCCN)NC(=O)[C@@H]2CSSC[C@@H]3NC(=O)[C@H]([C@@H](C)O)NC(=O)[C@H](CCCCN)NC(=O)[C@H](CCCNC(=N)N)NC(=O)[C@H](CSSC[C@H](NC(=O)[C@H](CCCNC(=N)N)NC(=O)[C@H](CO)NC(=O)[C@H](CCCCN)NC(=O)[C@@H]4CCCN4C(=O)[C@H]([C@@H](C)CC)NC(=O)[C@H]([C@@H](C)O)NC(=O)[C@H](CC(=O)O)NC(=O)[C@H]([C@@H](C)CC)NC(=O)[C@@H](NC(=O)[C@H](CO)NC(=O)[C@@H](N)CCCNC(=N)N)CSSC[C@@H](C(=O)N[C@H](C(N)=O)[C@@H](C)O)NC(=O)[C@H]([C@@H](C)O)NC(=O)CNC3=O)C(=O)N[C@@H]([C@@H](C)O)C(=O)N[C@@H](C)C(=O)N[C@@H](Cc3ccccc3)C(=O)N[C@@H](CCCCN)C(=O)N2)NC(=O)[C@H](Cc2ccccc2)NC(=O)[C@H](CO)NC(=O)[C@H](CC(C)C)NC(=O)[C@H](CCCNC(=N)N)NC(=O)[C@H](Cc2ccc(O)cc2)NC(=O)[C@H](CCCCN)NC1=O [[Lys16,Nva21]ShK-Thr-amide] | 0.03 | 0.702 | 0.385 |
